Assays:
SH-SY5Y cells [1] = assay: Confocal immunofluorescence of SH-SY5Y cells (3-Ntyr, Syp); type: cell-based, human; conditions: 7-NI
Procedure: Human neuroblastoma (“NB”) SH-SY5Y cells were obtained from the American Type Culture Collection (ATCC) and maintained in Dulbecco's modified Eagle's medium (DMEM) and Ham's F-12 (1:1) supplemented with 10% fetal bovine serum, 2 mM L-glutamine, and 100 U/ml penicillin-G/[…] streptomycin in the humidified atmosphere (37° C., 5% CO2). Cells were plated onto 25 cm^2 and 75 cm^2 at a density of […] respectively for Western blotting (WB) and 1×10^5 for immunofluorescence. The SH-SY5Y cells were treated with 100 μM 7-nitroindazole (7-NI) for 24 hr. This concentration was confirmed in the dose-response experiment (FIG. 1) using an MTT viability assay.
Cells cultured on coverslips coated with Poly-D-Lysine were washed three times with PBS and fixed in 4% paraformaldehyde for 15-20 min at room temperature. The fixed cells were washed three times with PBS and incubated in the presence of permeabilization buffer (PBS containing 0.1% Triton X-100) for 5 min at room temperature. […]

SH-SY5Y-xenografted mice = assay: Tumor volume in SH-SY5Y-xenografted mice; type: in vivo; conditions: 80 mg/kg 7-NI, after 1 month, vs control
Procedure: Data are presented as mean±SEM. Statistical significance was determined using a One-way ANOVA followed by Fisher's LSD multiple comparison post hoc test. **P<0.01.

SH-SY5Y cells [2] = assay: Western blots of 3-Ntyr, mTOR pathway components and Syp in SH-SY5Y cell lysate; type: cell-based, human; conditions: western blot normalized for β-actin, 100 μM 7-NI or 20 nM siRNA
Procedure: In FIGS. 4A-4D, for quantitative analysis data, all individual data series are presented as biological replicates (n=4) for all groups. Data were normalized for β-actin and are presented as mean±SEM. Statistical significance was determined using a One-way ANOVA followed by Fisher's LSD multiple comparison post hoc test. *P<0.05 and **P<0.01.
FIG. 4A: Representative western blots of 3-Ntyr prepared from cell lysate of SH-SY5Y cells following administration of the control (“SH-SY5Y”—Series 1), 100 μM 7-NI (“SH-SY5Y +7-NI”—Series 2), or 20 nM siRNA (SEQ ID NO: 4) (“SH-SY5Y+si-nNOS”—Series 3).
FIG. 4B: Quantitative analysis of 3-Ntyr levels for the experiments of FIG. 4A.
FIG. 4C: Representative western blots of mTOR, p-mTOR, TSC-2, AKT, pAKT, RPS6, pRPS6, and Syp prepared from the cell lysate of SH-SY5Y cells following administration of the control (“SH-SY5Y”—Series 1), 100 μM 7-NI (“SH-SY5Y+7-NI”—Series 2), or 20 nM siRNA (SEQ ID NO: 4) (“SH-SY5Y+si-nNOS”—Series 3).
FIG. 4D: Quantitative analysis of mTOR, p-mTOR, TSC-2, AKT, pAKT, RPS6, pRPS6, and Syp levels for the experiments of FIG. 4C.

SH-SY5Y cells [3] = assay: Clonogenic survival assay in SH-SY5Y cells; type: cell-based, human; conditions: 7-NI, 14 days
Procedure: Cells were seeded into 6-well plates at concentrations of 500/well or 1000/well in triplicates. After 24 hours, 7-NI was added, or cells were transiently transfected with siRNA-nNOS, as described above (SEQ ID NO: 4), before changing to serum-containing medium. Cells were incubated for 14 days to form visible colonies. Colonies were stained with crystal violet, washed with PBS, air-dried, and imaged. The colonies were visualized using ImageJ software. Cell colonies of greater than 50 cells were identified and counted.

iNOS = iNOS expression level in U87-MG cells; type: cell-based, human; conditions: compared to the control treatment, not statistically significant (FIG. 14)

SMILES	fluorescence intensity of 3-Ntyr (SH-SY5Y cells [1])	fluorescence intensity of Syp (SH-SY5Y cells [1])	tumor volume (SH-SY5Y-xenografted mice)	expression levels of 3-nitrotyrosine (3-Ntyr) (SH-SY5Y cells [2])	expression levels of AKT (SH-SY5Y cells [2])	expression levels of RPS6 (SH-SY5Y cells [2])	expression levels of TSC-2 (SH-SY5Y cells [2])	expression levels of mTOR (SH-SY5Y cells [2])	expression levels of p-mTOR (SH-SY5Y cells [2])	expression levels of pAKT (SH-SY5Y cells [2])	expression levels of pRPS6 (SH-SY5Y cells [2])	expression levels of synaptophysin (Syp) (SH-SY5Y cells [2])	number of colonies (SH-SY5Y cells [3])	expression level of iNOS (iNOS; higher dose)	expression level of iNOS (iNOS; lower dose)
O=[N+]([O-])c1cccc2cn[nH]c12 [7-NI, 7-nitroindazole]	significantly decreased	significantly decreased	significantly smaller	significant decrease	significant decrease	significant decrease	significant decrease	significant decrease	significant decrease	significant decrease	significant decrease	significant decrease	decrease	–	–
CC(=N)NCCCC[C@H](N)C(=O)O [L-NIL, N^6-(1-iminoethyl)-L-lysine]	–	–	–	–	–	–	–	–	–	–	–	–	–	unchanged	slightly elevated
